# Tested on: α-fodrin gene
# Experiment: α-fodrin gene expression in lymphocyte-derived immortalized cells before and after drug administration (real-time PCR)
# Assay type: cell-based, human
# Conditions: EB virus-immortalized cells derived from lymphocytes of the migraine group and the healthy group; before vs after administration of the drug to cells in culture; FIG. 2
# From the text: Peripheral bloods were harvested from 5 patients having an aura of migraine, as diagnosed according to the International Classification of Headache Disorders 2nd Edition (ICHD-II) of the International Headache Society as well as from 5 healthy subjects constituting a control group who are matched with the 5 patients in terms of age and sex. From the migraine subjects, their bloods were drawn during an interval between migraine attacks. Their lymphocytes were isolated by centrifugation from the peripheral bloods collected from each group.
# The lymphocytes of each group were infected by adding 1 mL of EB virus supernatant (the culture supernatant of B958 cells, EB virus-producing cells) to the lymphocytes at 2×10^6 cells and 2 μL of 100-fold diluted cyclosporin solution (original solution of cyclosporin (Sandimmun 1A (5 ml) 250 mg) to the lymphocytes at 2×10^6 cells, followed by incubation in RPMI(+) medium for about four days. Then, cell lines established by continuous passaging in the same medium were used as the lymphocyte-derived immortalized cells in the present invention. These immortalized cells were used for the following experiments under the same conditions of culture condition, number of passages, etc.
# Thus, the gene expression levels of α-fodrin and HPCAL1 were examined by performing quantitative real-time PCR using immortalized lymphocytes obtained from the migraine and healthy subjects as samples. […] The expression level of each gene was relatively quantified by the comparative Ct (threshold cycle) method based on the amplification curve obtained from the PCR.
# Immortalized cells derived from lymphocytes of the migraine group and the healthy group were subjected to mRNA expression analysis in the same manner as described above. […] By using part of the immortalized cells before and after the administration of each drug, the expression level of α-fodrin gene was analyzed.
row,SMILES,expression level of α-fodrin gene
1,"NC(N)=Nc1nc(CSCCC(N)=NS(N)(=O)=O)cs1 [Gaster, famotidine]",increased the expression level of α-fodrin
2,CC(=O)Oc1ccccc1C(=O)O [aspirin],reduced the expression level of α-fodrin
3,CNS(=O)(=O)Cc1ccc2[nH]cc(CCN(C)C)c2c1 [sumatriptan],reduced the expression level of α-fodrin
